One series is described as follows: Plasma Stability. It counts as in vitro ADME, human. The note with it: human plasma, remaining at 1 h. In a few lines:
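Compounds incubated at 1 μM in fresh human plasma for 1 hour at 37° C, then protein-precipitated with acetonitrile/formic acid containing internal standard. Remaining parent measured by LC-MS/MS in triplicate, expressed as percent of control remaining.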

A short description of series [1]: Stability in Simulated Intestinal Fluid (SIF). In kind it is in vitro ADME. Also noted: key: % parent compound remaining relative to 0-minute sample. The note with it: simulated intestinal fluid. In a few lines:
(§1)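 Stability was tested at 37° C in pepsin-supplemented gastric fluid, pH 1.2, and pancreatin-supplemented intestinal fluid, pH 6.8, using 2 μg/mL final compound over 0–60 minutes. Remaining parent was quantified by LC-MS/MS and expressed as a percentage of time zero.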

The nature of series [2]: Caco-2 Permeability Assay. In kind it is in vitro ADME, human. The note with it: human, Caco-2, pH 7.4, Caco-2 monolayer. In a few lines: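 Caco-2 monolayers cultured 21 days (TEER >600 […]); test article at 10 μM in HBSS/HEPES pH 7.4 transport medium, dosed apical or basolateral, ±Pgp inhibitor. Incubated 90 min at 37 °C; both compartments quantified by LC-MS/MS. Papp (A→B, B→A), efflux ratio and % recovery calculated.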
For orientation: Caco-2 cells form a polarised layer with tight junctions and transporters.

Series [3] in a line: Stability in Simulated Gastric Fluid (SGF). In kind it is in vitro ADME. Also noted: key: % parent compound remaining relative to 0-minute sample. The note with it: simulated gastric fluid, remaining at 1 h. An outline of the steps:
as §1

Turning to `CC(C)OCCn1c(=S)[nH]c(=O)c2c1ccn2COC(=O)CCCOC(=O)[C@H](NC(=O)OC(C)(C)C)C(C)C` [Example 355, 4-oxo-4-({4-oxo-1-[2-(propan-2-yloxy)ethyl]-2-sulfanylidene-1H,2H,3H,4H,5H-pyrrolo[3,2-d]pyrimidin-5-yl}methoxy)butyl (2R)-2-{[(tert-butoxy)carbonyl]amino}-3-methylbutanoate], the “human Plasma stability” value in the series “Plasma Stability” is 43% remaining. The SIF in series [1] (remaining at 1 h) was 100% remaining. In addition, in series [2], the Papp (in general, a coefficient for how fast a substance crosses the barrier) at 90 min, 10 µM came out at 2.16 ×10⁻⁶ cm/s. In addition, in series [3], the SGF is listed as 99% remaining.
Take `CC(C)OCCn1c(=S)[nH]c(=O)c2c1ccn2COC(=O)CCCOC(=O)[C@H](N)C(C)C` [Example 356, trifluoroacetic acid 4-oxo-4-({4-oxo-1-[2-(propan-2-yloxy)ethyl]-2-sulfanylidene-1H,2H,3H,4H,5H-pyrrolo[3,2-d]pyrimidin-5-yl}methoxy)butyl (2R)-2-amino-3-methylbutanoate]: the “human Plasma stability” value in “Plasma Stability” is recorded as 5% remaining. Further, the SIF in series [1] (remaining at 1 h) is 25% remaining. The same compound came in with a Papp at 90 min, 10 µM in series [2] of 11.3 ×10⁻⁶ cm/s. For the same compound, the SGF in series [3] is reported as 99% remaining.
For `CC(C)OCCn1c(SCOC(=O)CCCOC(=O)[C@H](N)C(C)C)nc(=O)c2c1ccn2COC(=O)CCCOC(=O)[C@H](N)C(C)C.O=C(O)C(F)(F)F.O=C(O)C(F)(F)F` [Example 358, bis(trifluoroacetic acid) 4-(((5-(((4-((D-valyl)oxy)butanoyl)oxy)methyl)-1-(2-isopropoxyethyl)-4-oxo-4,5-dihydro-1H-pyrrolo[3,2-d]pyrimidin-2-yl)thio)methoxy)-4-oxobutyl D-valinate], the “human Plasma stability” value in “Plasma Stability” was found to be 12% remaining. The SIF in series [1] (bare number, unit or time not given) was 48. The same compound showed a Papp at 90 min, 10 µM in series [2] of 1.78 ×10⁻⁶ cm/s. Also, in series [3], the SGF is given as 80% remaining.
Consider `CC(C)OCCn1c(=S)[nH]c(=O)c2c1ccn2COC(=O)CCCOC(=O)[C@@H](Cc1ccccc1)NC(=O)OC(C)(C)C` [Example 361, {4-oxo-1-[2-(propan-2-yloxy)ethyl]-2-sulfanylidene-1H,2H,3H,4H,5H-pyrrolo[3,2-d]pyrimidin-5-yl}methyl 4-{[(2R)-2-{[(tert-butoxy)carbonyl]amino}-3-phenylpropanoyl]oxy}butanoate], for which the “human Plasma stability” value in the series “Plasma Stability” is on record as 8% remaining. For the same compound, the SIF in series [1] (remaining at 1 h) is 9% remaining. Moreover, the Papp at 90 min, 10 µM in series [2] is below 0.31 ×10⁻⁶ cm/s. Also, the SGF in series [3] is reported as 95% remaining.
The corresponding values for `CC(C)OCCn1c(=S)[nH]c(=O)c2c1ccn2COC(=O)CCCOC(=O)[C@H](N)Cc1ccccc1.O=C(O)C(F)(F)F` [Example 362, trifluoroacetic acid {4-oxo-1-[2-(propan-2-yloxy)ethyl]-2-sulfanylidene-1H,2H,3H,4H,5H-pyrrolo[3,2-d]pyrimidin-5-yl}methyl 4-{[(2R)-2-amino-3-phenylpropanoyl]oxy}butanoate] are 3% remaining, 2% remaining, 5.12 ×10⁻⁶ cm/s and 90% remaining.
The corresponding values for `CC(C)OCCn1c(SCOC(=O)CCCOC(=O)[C@@H](Cc2ccccc2)NC(=O)OC(C)(C)C)nc(=O)c2c1ccn2COC(=O)CCCOC(=O)[C@@H](Cc1ccccc1)NC(=O)OC(C)(C)C` [Example 363, [(5-{[(4-{[(2R)-2-{[(tert-butoxy)carbonyl]amino}-3-phenylpropanoyl]oxy}butanoyl)oxy]methyl}-4-oxo-1-[2-(propan-2-yloxy)ethyl]-1H,4H,5H-pyrrolo[3,2-d]pyrimidin-2-yl)sulfanyl]methyl 4-{[(2R)-2-{[(tert-butoxy)carbonyl]amino}-3-phenylpropanoyl]oxy}butanoate] are 42% remaining, 18% remaining, 1.63 ×10⁻⁶ cm/s and 97% remaining.

The values are drawn from patent US20240067651A1 (Biohaven Therapeutics Ltd., priority 2019, published 2024).
